Test results reported in ChEMBL document CHEMBL3885861, “Open TG-GATES”.

Species on record: Rattus norvegicus
Experiment: Open TG-GATES - Regimen: Single
Type: toxicity, organism-based, Sprague-Dawley
Design: regimen Single, gender Male, age 6 weeks
Settings: in vivo, po, route gavage; for APTT / Bas / Eos / Fbg / Hb / Ht / Lym / MCH / MCHC / MCV / Mono / Neu / PT / Plat / RBC / Ret / WBC: tissue Blood; for KIDNEY_L / KIDNEY_R / KIDNEY_TOTAL: tissue Kidney; for LIVER: tissue Liver
[1] = 0 mg/kg, 24 h, tissue Plasma, dose level Control
[2] = 300 mg/kg, 3 h, tissue Plasma, dose level Low
[3] = 300 mg/kg, 6 h, tissue Plasma, dose level Low
[4] = 300 mg/kg, 9 h, tissue Plasma, dose level Low
[5] = 300 mg/kg, 24 h, dose level Low
[6] = 300 mg/kg, 24 h, tissue Plasma, dose level Low

O=C(O)c1ccccc1Nc1ccccc1 [FENAMIC ACID]
RALB [1]: 2.7 g/dL | TBIL [1]: 0.034 mg/dL | TC [1]: 77.6 mg/dL | TG [1]: 82.6 mg/dL | TP [1]: 5.6 g/dL | gamma-GTP [1]: 1 IU/L | TERMINAL_BW (300 mg/kg, 3 h, dose level Low): 209.1 g | APTT (300 mg/kg, 3 h, dose level Low): 16.8 s | Bas (300 mg/kg, 3 h, dose level Low): 0.8% | Eos (300 mg/kg, 3 h, dose level Low): 0.8% | Fbg (300 mg/kg, 3 h, dose level Low): 249.8 mg/dL | Hb (300 mg/kg, 3 h, dose level Low): 13.2 g/dL | Ht (300 mg/kg, 3 h, dose level Low): 40% | Lym (300 mg/kg, 3 h, dose level Low): 79.8% | MCH (300 mg/kg, 3 h, dose level Low): 20.5 pg | MCHC (300 mg/kg, 3 h, dose level Low): 33% | MCV (300 mg/kg, 3 h, dose level Low): 62.3 fL | Mono (300 mg/kg, 3 h, dose level Low): 2.2% | Neu (300 mg/kg, 3 h, dose level Low): 16.2% | PT (300 mg/kg, 3 h, dose level Low): 14.3 s | Plat (300 mg/kg, 3 h, dose level Low): 113.6 x10_4/uL | RBC (300 mg/kg, 3 h, dose level Low): 642.2 x10_4/ul | Ret (300 mg/kg, 3 h, dose level Low): 8.8% | WBC (300 mg/kg, 3 h, dose level Low): 95.7 x10_2/uL | KIDNEY_L (300 mg/kg, 3 h, dose level Low): 1 g | KIDNEY_R (300 mg/kg, 3 h, dose level Low): 0.9 g | KIDNEY_TOTAL (300 mg/kg, 3 h, dose level Low): 1.9 g | LIVER (300 mg/kg, 3 h, dose level Low): 8.2 g | A/G [2]: 0.9 | ALP [2]: 1661.4 IU/L | ALT [2]: 38.2 IU/L | AST [2]: 73.4 IU/L | BUN [2]: 12.4 mg/dL | CRE [2]: 0.2 mg/dL | Ca [2]: 11.1 mg/dL | Cl [2]: 107.2 meq/L | GLC [2]: 187.4 mg/dL | IP [2]: 9.6 mg/dL | K [2]: 4.4 meq/L | LDH [2]: 78.4 IU/L | Na [2]: 144.4 meq/L | PL [2]: 124.6 mg/dL | RALB [2]: 2.5 g/dL | TC [2]: 67.4 mg/dL | TG [2]: 93.4 mg/dL | TP [2]: 5.4 g/dL | gamma-GTP [2]: 1 IU/L | TERMINAL_BW (300 mg/kg, 6 h, dose level Low): 201.5 g | APTT (300 mg/kg, 6 h, dose level Low): 16.7 s | Bas (300 mg/kg, 6 h, dose level Low): 0.6% | Eos (300 mg/kg, 6 h, dose level Low): 0.8% | Fbg (300 mg/kg, 6 h, dose level Low): 248.8 mg/dL | Hb (300 mg/kg, 6 h, dose level Low): 13.5 g/dL | Ht (300 mg/kg, 6 h, dose level Low): 40.6% | Lym (300 mg/kg, 6 h, dose level Low): 74.6% | MCH (300 mg/kg, 6 h, dose level Low): 20.9 pg | MCHC (300 mg/kg, 6 h, dose level Low): 33.3% | MCV (300 mg/kg, 6 h, dose level Low): 62.9 fL | Mono (300 mg/kg, 6 h, dose level Low): 2.4% | Neu (300 mg/kg, 6 h, dose level Low): 21.4% | PT (300 mg/kg, 6 h, dose level Low): 14.5 s | Plat (300 mg/kg, 6 h, dose level Low): 114.4 x10_4/uL | RBC (300 mg/kg, 6 h, dose level Low): 645.8 x10_4/ul | Ret (300 mg/kg, 6 h, dose level Low): 8% | WBC (300 mg/kg, 6 h, dose level Low): 96.1 x10_2/uL | KIDNEY_L (300 mg/kg, 6 h, dose level Low): 0.9 g | KIDNEY_R (300 mg/kg, 6 h, dose level Low): 0.9 g | KIDNEY_TOTAL (300 mg/kg, 6 h, dose level Low): 1.8 g | LIVER (300 mg/kg, 6 h, dose level Low): 7.3 g | A/G [3]: 0.9 | ALP [3]: 1342.6 IU/L | ALT [3]: 38.4 IU/L | AST [3]: 73 IU/L | BUN [3]: 8.8 mg/dL | CRE [3]: 0.2 mg/dL | Ca [3]: 10.7 mg/dL | Cl [3]: 107.4 meq/L | GLC [3]: 152.8 mg/dL | IP [3]: 9.9 mg/dL | K [3]: 3.9 meq/L | LDH [3]: 66.6 IU/L | Na [3]: 144.2 meq/L | PL [3]: 116.8 mg/dL | RALB [3]: 2.5 g/dL | TC [3]: 58.6 mg/dL | TG [3]: 38.8 mg/dL | TP [3]: 5.3 g/dL | gamma-GTP [3]: 1.2 IU/L | TERMINAL_BW (300 mg/kg, 9 h, dose level Low): 205.1 g | APTT (300 mg/kg, 9 h, dose level Low): 17.9 s | Bas (300 mg/kg, 9 h, dose level Low): 0.6% | Eos (300 mg/kg, 9 h, dose level Low): 1% | Fbg (300 mg/kg, 9 h, dose level Low): 262.6 mg/dL | Hb (300 mg/kg, 9 h, dose level Low): 13.5 g/dL | Ht (300 mg/kg, 9 h, dose level Low): 40.6% | Lym (300 mg/kg, 9 h, dose level Low): 71.8% | MCH (300 mg/kg, 9 h, dose level Low): 20.9 pg | MCHC (300 mg/kg, 9 h, dose level Low): 33.1% | MCV (300 mg/kg, 9 h, dose level Low): 63.2 fL | Mono (300 mg/kg, 9 h, dose level Low): 2% | Neu (300 mg/kg, 9 h, dose level Low): 24.4% | PT (300 mg/kg, 9 h, dose level Low): 14.9 s | Plat (300 mg/kg, 9 h, dose level Low): 116.7 x10_4/uL | RBC (300 mg/kg, 9 h, dose level Low): 642.8 x10_4/ul | Ret (300 mg/kg, 9 h, dose level Low): 7.8% | WBC (300 mg/kg, 9 h, dose level Low): 78.3 x10_2/uL | KIDNEY_L (300 mg/kg, 9 h, dose level Low): 0.9 g | KIDNEY_R (300 mg/kg, 9 h, dose level Low): 0.9 g | KIDNEY_TOTAL (300 mg/kg, 9 h, dose level Low): 1.8 g | LIVER (300 mg/kg, 9 h, dose level Low): 7.2 g | A/G [4]: 0.9 | ALP [4]: 1734.8 IU/L | ALT [4]: 35 IU/L | AST [4]: 69.6 IU/L | BUN [4]: 13.4 mg/dL | CRE [4]: 0.2 mg/dL | Ca [4]: 10.9 mg/dL | Cl [4]: 108 meq/L | GLC [4]: 149 mg/dL | IP [4]: 11 mg/dL | K [4]: 3.8 meq/L | LDH [4]: 60.6 IU/L | Na [4]: 146 meq/L | PL [4]: 121.6 mg/dL | RALB [4]: 2.6 g/dL | TC [4]: 59.4 mg/dL | TG [4]: 39.8 mg/dL | TP [4]: 5.5 g/dL | gamma-GTP [4]: 1.2 IU/L | TERMINAL_BW [5]: 218.8 g | APTT [5]: 17.6 s | Bas [5]: 0.6% | Eos [5]: 0.6% | Fbg [5]: 269.2 mg/dL | Hb [5]: 13.3 g/dL | Ht [5]: 40.1% | Lym [5]: 80.6% | MCH [5]: 20.9 pg | MCHC [5]: 33.1% | MCV [5]: 63.2 fL | Mono [5]: 2.6% | Neu [5]: 15% | PT [5]: 14.4 s | Plat [5]: 121.2 x10_4/uL | RBC [5]: 634.4 x10_4/ul | Ret [5]: 7.4% | WBC [5]: 115.6 x10_2/uL | KIDNEY_L [5]: 1 g | KIDNEY_R [5]: 1 g | KIDNEY_TOTAL [5]: 2 g | LIVER [5]: 10.2 g | A/G [6]: 0.9 | ALP [6]: 1785.8 IU/L | ALT [6]: 38.6 IU/L | AST [6]: 71.2 IU/L | BUN [6]: 14 mg/dL | CRE [6]: 0.2 mg/dL | Ca [6]: 11.2 mg/dL | Cl [6]: 105.6 meq/L | GLC [6]: 173.4 mg/dL | IP [6]: 6.9 mg/dL | K [6]: 4 meq/L | LDH [6]: 130.6 IU/L | Na [6]: 144.2 meq/L | PL [6]: 143.2 mg/dL | RALB [6]: 2.6 g/dL
